Data: patent US20250319136A1, “METHOD FOR PREPARING OLIGOD[…] USE” (Shenzhen ExoNeuglia Biomedical Technology Co., Ltd., priority 2022, published 2025)

Key:
hiPSC-derived NSCs [1] = experiment: OLIG2 immunostaining of hiPSC-derived NSCs at D12; assay type: cell-based, human; conditions: for effect on WIN-induced upregulation of OLIG2+ cells: co-treatment with WIN, D12
Experimental: (§1) In order to generate PAX6+/NESTIN+/SOX2+NSC, the dual SMAD neural induction method was used. hiPSCs with a density of ˜80% with neural induction medium (NIM) were treated from day 0 (DO) to day 7, and the medium was changed every day. Starting from D8, the medium was changed daily to fresh N2 medium containing RA (100 nM), purine amine (PUR, 1 μM) and WIN (1 μM). Starting from D12, cells were manually isolated and suspended in the ultra-low attachment plate in N2B27 medium containing RA (100 nM), PUR (1 μM) and WIN (1 μM), and the medium was changed every other day. Starting from D20, the spheroids were further suspended in PDGF-AA medium for culture. At D30, expanded spheroids were seeded on Matrigel-coated plates or Petri dishes with low growth factors in the glial differentiation medium (GDM).
(§2) The identification of cell markers in the present invention uses an immunofluorescence staining method, wherein cells (NSCs, OPCs and OLs) at different culture stages were cultured on confocal Petri dishes coated with Matrigel or Matrigel with reduced growth factors, washed three times with pre-cooled PBS, and fixed with 4% paraformaldehyde (PFA) at room temperature for 15 minutes. The fixed samples were then washed three times, permeabilized and blocked with blocking solution containing 0.5% triton X-100 and 2% bovine serum albumin (BSA) for 30 min at room temperature. The diluted primary antibodies listed in Table S2 were applied to cover the cells overnight at 4° C. The next day, the corresponding secondary antibodies (listed in Table S3) were added for staining in the dark for 60 min at room temperature after washing. DAPI containing anti-fluorescence quencher was then added to the culture dish for nuclear staining. Images were taken using a confocal microscope (Zeiss, LSM880) or an inverted microscope (Nikon, Eclipse Ti2-U).

hiPSC-derived OPCs/OLs = experiment: qRT-PCR relative mRNA expression in differentiating cells; assay type: cell-based, human
From the text: The present invention uses qRT-PCR to calculate the relative mRNA expression fold changes. The specific method is as follows: according to the manufacturer's instructions, the RNA rapid purification kit (ES science, Shanghai, China) was used to collect and purify the total RNA of cells and spinal cord tissue. After quantifying the RNA concentration with NANODROP ONE (Thermo Fisher Scientific, USA),
EasyScript® Integrated first-line cDNA synthesis Supermix and T100TM thermal cycler (BIO-RAD) was used for […] (one-step gDNA removal), and then PerfectStart Green qPCR SiperMix (TRNAS, China) and LightCycler® 96 (Roche) were used for quantification by qRT-PCR. All processes were performed according to the manufacturer's instructions. 2-AACt method was used to calculate the relative mRNA expression fold changes.

hiPSC-derived NSCs [2] = experiment: Number of OLIG2+ spheroids in suspension culture at D20; assay type: cell-based, human; conditions: D20, n=3
Experimental: as §1

NSC = experiment: Effect of WIN concentration series on NSC growth; assay type: cell-based, human; conditions: 1 μM WIN
[3] = test system: rat neuropathic pain models; conditions: cited from earlier work
D30 cells = experiment: RNA SEQ on D30 cells; assay type: cell-based, human
Experimental: Total RNA was extracted using RNA rapid purification kit (ES science, Shanghai, China) according to the manufacturer's instructions. RNA library sequencing was performed on an Illumina HiseqTM 2500/4000 by Gene Denovo Biotechnology Co.,
Ltd. (Guangzhou, China). Bioinformatics analysis was performed using Omicsmart, which is a real-time interactive online platform for data analysis (http://www.omicsmart.com).

hiPSC-derived OPCs [4] = experiment: In vitro maturation of OPCs to OLs (O4, GALC, MBP; immunofluorescence and flow cytometry); assay type: cell-based, human
Experimental: as §2
Taking flow cytometry based on anti-O4-APC antibody as an example, 2 μL antibody was added to a 98 μL of single cell suspension containing 1×10^6 cells and cell staining buffer, mixed well and incubated for 10 min in the dark in a refrigerator. After incubation, cells were washed and dried. The cell pellet was then resuspended in an appropriate amount of buffer and filtered through […] cell filter prior to analysis. Flow cytometry was performed on a CytoFLEX cytometer (Beckman, USA).

[5] = test system: hiPSC-derived cell spheres; experiment: Cell migration out of spheroids; assay type: cell-based, human; conditions: after 36 hours, n=40
Experimental: In order to test the migration ability, the inventor carried out experiments on two dimensions of spheroid and single-cell state. First, the inventors have observed the ability of cells in the control and WIN groups to migrate out of the spheroids. Selected spheroids of the same size at day 30 from the control and WIN groups were seeded on 6-well plates coated with Matrigel with reduced growth factor in GDM medium. After 4, 12, 24, and 36 h, cell spheres and migrated cells were observed and imaged under an inverted microscope.

hiPSC-derived OPCs [6] = experiment: OPC marker immunofluorescence and flow cytometry at D34; assay type: cell-based, human; conditions: D34, n=3
Experimental: as §2
Taking flow cytometry based on anti-O4-APC antibody as an example, 2 μL antibody was added to a 98 μL of single cell suspension containing 1×10^6 cells and cell staining buffer, mixed well and incubated for 10 min in the dark in a refrigerator. After incubation, cells were washed and dried. […]

hiPSC-derived OPCs [7] = experiment: Scratch assay, single-cell migration; assay type: cell-based, human; conditions: at 48h, n=3
Experimental: In the scratch assay, 34-day-old cells were digested with pre-warmed accutase and filtered through […] cell filter to produce a single-cell suspension. After centrifugation, these single cells were seeded on a 24-well plate coated with Matrigel with reduced growth factor at the density of 2×10^6/mL and cultured with GDM. When the cell confluence reached 70-80%, a scratch was formed on the cell using 10 μL the pipette tip. After washing with DPB, fresh GDM was added to the wells. Cell images were collected at 0, 12, 24, 36, 48, 60, and 72 h using an inverted microscope. All images were measured and analyzed by Image J (i.e., software image J).

O4+ OPCs = experiment: Nanofiber myelination assay; assay type: cell-based, human; conditions: after 2 weeks of culture
Experimental: O4+ OPC isolation was performed according to the manufacturer's instructions using MACS based on anti-O4 microbeads (MiltenyiBiotec, Germany). A single cell suspension was prepared by digesting cells with pre warmed Accutase at 37° C. for 30 min at day 44. After digestion, the cell mixture was diluted with pre-cooled DMEM/F12 and centrifuged at 300 g for 5 min at room temperature. The cells were then resuspended in DMEM/F12 and filtered through […] cell filter, and cells were collected by centrifugation at 300 g for 5 min at room temperature. After mixing evenly, the cell mixture was incubated in a refrigerator for 15 min. Then 1 mL of cold MACS buffer was added and centrifuged at 300 g for 10 min. The cell pellet was resuspended in 500 μL cold MACS buffer and mixed well. Afterwards, the cell mixture was added to the MS column and pre-rinsed using 500 μL cold MACS buffer in the magnetic field of a suitable MACS separator, and the column was washed three times with 500 μL buffer. Unlabeled cells were collected from the effluent. When the column reservoir was empty, the column was placed on a 15 mL collection tube and rinse with 1 mL buffer. Magnetically labeled cells were collected from the effluent by firmly pushing the plunger into the column. The eluted O4+ rich cells were then centrifuged at 300 g for 5 min and resuspended in 1 mL GDM. […]

SMILES	effect on WIN-induced upregulation of OLIG2+ cells (hiPSC-derived NSCs [1])	mRNA expression level of PDGFR a compared with control group (hiPSC-derived OPCs/OLs; D30, n=3, P<0.01)	mRNA expression of GALC (hiPSC-derived OPCs/OLs; D55)	mRNA expression of MBP (hiPSC-derived OPCs/OLs; D55)	mRNA expression of PLP1 (hiPSC-derived OPCs/OLs; D55)	OLIG2-positive (OLIG2+) cells (hiPSC-derived NSCs [1]; 1 μM WIN, D12, n=3)	OLIG2+ spheroids relative to control group (hiPSC-derived NSCs [2])	side effects on the growth of NSC (NSC)	analgesic activity [3]	genes down-regulated compared with control group (D30 cells)	genes up-regulated compared with control group (D30 cells)	percentage of O4+ cells (hiPSC-derived OPCs [4]; D44, n=4)	cells expressing immature OL marker GALC (hiPSC-derived OPCs [4]; D55, n=3)	percentage of mature OLs co-expressing O4 and MBP (hiPSC-derived OPCs [4]; D66, n=3)	average migration distance of cells from cell spheres [5]	cells expressing PDGFR α (hiPSC-derived OPCs [6])	migration rate in scratch experiment (hiPSC-derived OPCs [7])	area of nanofibers covered by MBP compared with control group (O4+ OPCs)	number of MBP+ OLs on nanofibers compared with control group (O4+ OPCs)
Cc1c(C(=O)NN2CCCCC2)nn(-c2ccc(Cl)cc2Cl)c1-c1ccc(Cl)cc1 [rimonabant, Rimonabant]	significantly inhibited																		
Cc1c(C(=O)c2cccc3ccccc23)c2cccc3c2n1[C@H](CN1CCOCC1)CO3 [WIN, WIN55212-2]		up-regulated	up-regulated	up-regulated	up-regulated	95.4±0.2%	1.7 ±0.1 times	no side effects on the growth of NSC	potent analgesic	98 genes	983 genes	42.4±2.1%	86.2±5.3%	37.2±2.9%	203.7±6.3 μm	more than 95.4±2.2%	44.5±1.0%	significantly increased	significantly increased
COc1ccc(C(=O)c2c(C)n(CCN3CCOCC3)c3cc(I)ccc23)cc1 [AM630]	significantly inhibited																		
